# Laboratory results published in patent US20240082463A1, “COATED MEDICAL PRODUCT” (HEMOTEQ AG, priority 2020, published 2024).
# Where two headings read alike, the source gives them in different places.
# Key:
# [1] = Preparation and stability of crystal suspensions of microcrystalline paclitaxel with solutions of different tri-O-acylglycerols; conditions: for microcrystals intact in SEM images: SEM 200× and 1000×; for microcrystals of paclitaxel dissolve directly in the solution: directly after combining, room temperature; for paclitaxel microcrystals on temperature increase: temperature increased (50° C.); for stability of crystal suspension: after 24-48 hours and temperature elevation to 50° C.
# From the text: In the first step, solutions of tri-O-acylglycerols were first prepared in a solvent mixture. Subsequently, the solutions were combined with microcrystals of paclitaxel to investigate which tri-O-acylglycerols could be used to obtain stable crystal suspensions. […] For the preparation of the solutions, an ethyl acetate/heptane solvent mixture was used here as an example.
# To prepare the solutions, the respective tri-O-acylglycerol was first dissolved in a polar organic solvent and then a non-polar solvent was added.
# To prepare the solutions, 770 mg of the respective tri-O-acylglycerol were dissolved in 14 g ethyl acetate (15.6 mL). Then, 57.4 g of n-heptane (84.4 mL) was added.
# Subsequently, homogenization and filtration were performed. The total volume of the solvent mixture is 100 mL.
# To a precisely weighed amount of dry microcrystals of the previously prepared paclitaxel, a defined amount of the solutions containing tri-O-acylglycerol and optionally antioxidant is carefully added.
# To check whether crystal suspension can be prepared, to each 200 mg of paclitaxel in the form of microcrystals were carefully added 10 mL of one of the solutions 1a) to 1j) at room temperature. Six mixtures of 10 mL of solution for each solution were prepared. After combining, it was tested whether the microcrystals of paclitaxel dissolved directly in the solutions.
# To evaluate the crystal size, particle size distribution (i.e., crystal size distribution), and shape of the crystals, a sample was taken with a Pasteur pipette in each case and a drop was placed on the slide of the SEM sample plate. SEM images were taken at 200× and 1000× magnification for evaluation.
# To evaluate the crystal size, particle size distribution (i.e., crystal size distribution), and shape of the crystals, one sample was taken from each using a Pasteur pipette and one drop was placed on the foil of the SEM sample plate. An additional sample was taken from the sediment and one drop was placed on the slide of the SEM sample plate. SEM images were taken at 200× and 1000× magnification for evaluation. SEM images were taken at 200 and 1000× magnification for evaluation.
# To prepare the solutions, 770 mg of the respective tri-O-acylglycerol were dissolved in 14 g ethyl acetate (15.6 mL). Then, 57.4 g of n-heptane (84.4 mL) was added. Subsequently, homogenization and filtration were performed. The total volume of the solvent mixture is 100 mL.
# Three mixtures of 10 mL of solution for each solution were prepared. After combining, it was tested whether the microcrystals dissolved directly in these solutions.
# [2] = cited from earlier work
# [3] = cited from earlier work; remark: listed apart in the source
# [4] = Crystal suspensions of microcrystalline paclitaxel in different solvent mixtures; assay type: physicochemical; parameters: key: +++: good; +/−: average; −−−: poor; conditions: with trioctanoylglycerol
# Experimental: To prepare the solutions, 770 mg of trioctanoylglycerol was dissolved in the polar solvent. Then the nonpolar solvent was added. It was then homogenized and filtered.
# To test whether crystal suspension could be prepared, 10 mL of each of the solutions was carefully added to 200 mg of paclitaxelin the form of microcrystals at room temperature. After combining, it was tested whether stable crystal suspensions were obtained.
compound,measurement,setting,value
CCCCCCCCCCCC(=O)OCC(COC(=O)CCCCCCCCCCC)OC(=O)CCCCCCCCCCC [tridodecanoylglycerol],sedimentation of the microcrystals,[1],sedimentation of the crystals occurred
same,state of paclitaxel microcrystals in the suspension after 100 h,[1],did not dissolve completely
same,microcrystals intact in SEM images,[1],did not remain intact
same,microcrystals of paclitaxel dissolve directly in the solution,[1],did not dissolve directly
CCCCCC(=O)OCC(COC(=O)CCCCC)OC(=O)CCCCC [trihexanoylglycerol],state of paclitaxel microcrystals in the suspension after 100 h,[1],not as uniformly present
same,microcrystals of paclitaxel dissolve directly in the solution,[1],did not dissolve directly
same,paclitaxel microcrystals on temperature increase,[1],dissolved rapidly
"CCCC(C)(C)C [2,2-Dimethylpentane]",logKOW,"[2]; Table 2, rounded values",3.8
OCC(O)CO [Glycerin],logKOW,"[2]; Table 6, rounded values",−1.8
CC(C)=O [Acetone],logKOW,"[2]; Table 6, rounded values",−0.2
same,logKOW,[2]; Table 7,−0.24
C1CCCCCC1 [Cycloheptane],logKOW,"[2]; Table 2, rounded values",4
CC(C)Cc1ccccc1 [iso-butylbenzene],logKOW,[2]; Table 4,4.1
CCCC(C)C [2-Methylpentane],logKOW,"[2]; Table 2, rounded values",3.6
CCOC(C)=O [Ethyl acetate],logKOW,"[2]; Table 6, rounded values",+0.7
same,logKOW,[2]; Table 7,0.73
Clc1ccccc1 [Chlorobenzene],logKOW,[2]; Table 4,2.9
same,log KOW,[2],about 2.9
CCCCCCC [Heptane],logKOW,"[2]; Table 2, rounded values",4.5
same,logKOW,[2]; Table 8,4.50
CCCCCCCCC(=O)OCC(COC(=O)CCCCCCCC)OC(=O)CCCCCCCC [trinonanoylglycerol],stability of crystal suspension,[1],remained stable
same,solubility in water,[3],practically insoluble
CCC(=O)O [Propionic acid],logKOW,[2]; Table 7,0.32
ClCCl [Dichloromethane],logKOW,"[2]; Table 6, rounded values",+1.3
same,logKOW,[2]; Table 7,1.25
CC(C)Cc1ccccc1 [2-Methyl-1-phenylpropane],logKOW,[2]; Table 4,3.4
CCOc1ccccc1 [Ethoxybenzene],logKOW,[2]; Table 4,2.5
Cc1ccccc1C [o-Xylene],logKOW,[2]; Table 4,3.1
same,logKOW,[2]; Table 8,3.12
CCCCCCC(=O)OCC(COC(=O)CCCCCC)OC(=O)CCCCCC [triheptanoylglycerol],state of paclitaxel microcrystals in the suspension after 100 h,[1],partially dissolved
same,microcrystals intact in SEM images,[1],did not remain intact
same,microcrystals of paclitaxel dissolve directly in the solution,[1],did not dissolve directly
same,paclitaxel microcrystals on temperature increase,[1],dissolved
CC(C)(C)C1CCCCC1 [tert-butylcyclohexane],logKOW,"[2]; Table 2, rounded values",4.0
CCc1ccccc1 [Ethylbenzene],logKOW,[2]; Table 4,3.2
C1CCCCCCCCC1 [Cyclodecane],logKOW,"[2]; Table 2, rounded values",5.5
FC(F)(F)C(F)(F)C(F)(F)C(F)(F)C(F)(F)C(F)(F)F [Tetradecafluorohexane],logKOW,[2]; Table 4,5.8
CCOCC [Diethyl ether],logKOW,"[2]; Table 6, rounded values",+0.9
same,logKOW,[2]; Table 7,0.89
CCCOCCC [Dipropyl ether],logKOW,"[2]; Table 6, rounded values",+2.0
"CC(C)CC(C)(C)C [2,2,4-Trimethylpentane]",logKOW,"[2]; Table 2, rounded values",4.1
"CCC(C)C(C)C (stereo not drawn) [2,3-Dimethylpentane]",logKOW,"[2]; Table 2, rounded values",3.8
CCCCC(C)C [2-Methylhexane],logKOW,"[2]; Table 2, rounded values",3.7
CC1CCCC1 [Methylcyclopentane],logKOW,"[2]; Table 2, rounded values",3.4
ClC(Cl)(Cl)Cl [Carbon tetrachloride],logKOW,"[2]; Table 3, rounded orientation values",approx. 2.8
same,logKOW,[2]; Table 4,2.8
COc1ccccc1 [Anisol],logKOW,[2]; Table 4,2.1
CC(C)c1ccccc1 [Cumol],logKOW,[2]; Table 4,3.4
CCC(C)C [Isopentane],logKOW,"[2]; Table 2, rounded values",3.2
C1CCCCCCCC1 [Cyclononan],logKOW,"[2]; Table 2, rounded values",5.1
"C1COCCO1 [1,4-Dioxane]",logKOW,"[2]; Table 6, rounded values",−0.4
same,logKOW,[2]; Table 7,−0.42
same,log KOW,[2],about −0.4
"CCCCCCCCCCC(=O)OCC(COC(=O)CCCCCCCCCC)OC(=O)CCCCCCCCCC [triundecanoylglycerol, 1,3-bis(undecanoyloxy)propan-2-yl-undecanoate]",sedimentation of the microcrystals,[1],no sedimentation
same,microcrystals intact in SEM images,[1],remained intact
same,stability of crystal suspension,[1],remained stable
same,solubility in water,[3],practically insoluble
Cc1cccc(C)c1 [m-Xylene],logKOW,[2]; Table 4,3.2
same,logKOW,[2]; Table 8,3.20
CN1CCCC1=O [N-methylpyrrolidone],logKOW,"[2]; Table 6, rounded values",−0.5
CC1CCCCC1 [Methylcyclohexane],logKOW,"[2]; Table 2, rounded values",3.9
CO [Methanol],logKOW,"[2]; Table 6, rounded values",−0.7
same,logKOW,[2]; Table 7,−0.74
CCCCCCCCCC [Decan],logKOW,"[2]; Table 2, rounded values",6.3
"CCC(C)(C)C [2,2-Dimethylbutane]",logKOW,"[2]; Table 2, rounded values",3.8
O [Water],logKOW,"[2]; Table 5, rounded orientation values",approx. −1.4
Cc1ccc(C)cc1 [p-Xylene],logKOW,[2]; Table 4,3.2
same,logKOW,[2]; Table 8,3.15
CCCCc1ccccc1 [1-Phenylbutane],logKOW,[2]; Table 4,3.4
"CCC(C)=O [Solution 2-Butanone, 2-Butanone]",logKOW,[2]; Table 7,0.29
CCCCCCCC [Octane],logKOW,"[2]; Table 2, rounded values",5.2
CCC(C)c1ccccc1 (stereo not drawn) [2-Phenylbutane],logKOW,[2]; Table 4,3.4
"CCCC(C)=O [Solution 2-Pentanone, 2-Pentanone]",logKOW,"[2]; Table 6, rounded values",+0.9
same,logKOW,[2]; Table 7,0.84
"C1CCOC1 [Tetrahydrofuran (THF), Tetrahydrofuran]",logKOW,"[2]; Table 6, rounded values",+0.5
same,logKOW,[2]; Table 7,0.46
CCCOC(C)=O [n-Propyl acetate],logKOW,"[2]; Table 6, rounded values",+1.4
CCCCCCCCCCCCCC(=O)OCC(COC(=O)CCCCCCCCCCCCC)OC(=O)CCCCCCCCCCCCC [tritetradecanoylglycerol],sedimentation of the microcrystals,[1],sedimentation of the crystals occurred
same,state of paclitaxel microcrystals in the suspension after 100 h,[1],did not dissolve completely
same,microcrystals intact in SEM images,[1],did not remain intact
same,microcrystals of paclitaxel dissolve directly in the solution,[1],did not dissolve directly
"CC(=O)O[C@H]1C(=O)[C@@]2(C)[C@H]([C@H](OC(=O)c3ccccc3)[C@]3(O)C[C@H](OC(=O)[C@H](O)[C@@H](NC(=O)c4ccccc4)c4ccccc4)C(C)=C1C3(C)C)[C@]1(OC(C)=O)CO[C@@H]1C[C@@H]2O [paclitaxel, (2α,4α,5β,7β,10β,13α)-4,10-Bis(acetyloxy)-13-{[(2R,3S)-3-(benzoylamino)-2-hydroxy-3-phenylpropanoyl]oxy}-1,7-dihydroxy-9-oxo-5,20-epoxytax-11-en-2-yl-benzoat]",Crystal suspension,[4]; Acetone/Cyclohexane 10:90 (v/v polar/non-polar),+++
same,Crystal suspension,[4]; Acetone/Cyclohexane 50:50 (v/v polar/non-polar),−−−
same,Crystal suspension,[4]; Acetone/Cyclohexane 60:40 (v/v polar/non-polar),−−−
same,Crystal suspension,[4]; Acetone/Heptane 10:90 (v/v polar/non-polar),+++
same,Crystal suspension,[4]; Acetone/Heptane 60:40 (v/v polar/non-polar),−−−
same,Crystal suspension,[4]; Acetone/Hexane 10:90 (v/v polar/non-polar),+++
same,Crystal suspension,[4]; Acetone/Hexane 50:50 (v/v polar/non-polar),−−−
same,Crystal suspension,[4]; Acetone/Hexane 60:40 (v/v polar/non-polar),−−−
same,Crystal suspension,[4]; Ethanol/Cyclohexane 10:90 (v/v polar/non-polar),+++
same,Crystal suspension,[4]; Ethanol/Cyclohexane 60:40 (v/v polar/non-polar),−−−
same,Crystal suspension,[4]; Ethanol/Heptane 10:90 (v/v polar/non-polar),+++
same,Crystal suspension,[4]; Ethanol/Heptane 60:40 (v/v polar/non-polar),−−−
same,Crystal suspension,[4]; Ethanol/Hexane 10:90 (v/v polar/non-polar),+++
same,Crystal suspension,[4]; Ethanol/Hexane 60:40 (v/v polar/non-polar),−−−
same,Crystal suspension,[4]; Ethyl acetate/Cyclohexane 10:90 (v/v polar/non-polar),+++
same,Crystal suspension,[4]; Ethyl acetate/Cyclohexane 30:70 (v/v polar/non-polar),+++
same,Crystal suspension,[4]; Ethyl acetate/Cyclohexane 40:60 (v/v polar/non-polar),+++
same,Crystal suspension,[4]; Ethyl acetate/Cyclohexane 60:40 (v/v polar/non-polar),+/−
same,Crystal suspension,[4]; Ethyl acetate/Heptane 10:90 (v/v polar/non-polar),+++
same,Crystal suspension,[4]; Ethyl acetate/Heptane 30:70 (v/v polar/non-polar),+++
same,Crystal suspension,[4]; Ethyl acetate/Heptane 40:60 (v/v polar/non-polar),+++
same,Crystal suspension,[4]; Ethyl acetate/Heptane 60:40 (v/v polar/non-polar),+/−
same,Crystal suspension,[4]; Ethyl acetate/Hexane 10:90 (v/v polar/non-polar),+++
same,Crystal suspension,[4]; Ethyl acetate/Hexane 30:70 (v/v polar/non-polar),+++
same,Crystal suspension,[4]; Ethyl acetate/Hexane 40:60 (v/v polar/non-polar),+++
same,Crystal suspension,[4]; Ethyl acetate/Hexane 60:40 (v/v polar/non-polar),+/−
same,Crystal suspension,[4]; iso-propanol/Cyclohexane 10:90 (v/v polar/non-polar),+++
same,Crystal suspension,[4]; iso-propanol/Cyclohexane 50:50 (v/v polar/non-polar),−−−
same,Crystal suspension,[4]; iso-propanol/Cyclohexane 60:40 (v/v polar/non-polar),−−−
same,Crystal suspension,[4]; iso-propanol/Heptane 10:90 (v/v polar/non-polar),+++
same,Crystal suspension,[4]; iso-propanol/Heptane 50:50 (v/v polar/non-polar),−−−
same,Crystal suspension,[4]; iso-propanol/Heptane 60:40 (v/v polar/non-polar),−−−
same,Crystal suspension,[4]; iso-propanol/Hexane 10:90 (v/v polar/non-polar),+++
same,Crystal suspension,[4]; iso-propanol/Hexane 50:50 (v/v polar/non-polar),−−−
same,Crystal suspension,[4]; iso-propanol/Hexane 60:40 (v/v polar/non-polar),−−−
C1CCCC1 [Cyclopentane],logKOW,"[2]; Table 2, rounded values",3.0
same,logKOW,[2]; Table 8,3.00
CC#N [Acetonitrile],logKOW,"[2]; Table 6, rounded values",−0.3
same,logKOW,[2]; Table 7,−0.34
CCCCCCCCC [Nonan],logKOW,"[2]; Table 2, rounded values",5.7
Clc1ccccc1Cl [o-Dichlorobenzene],logKOW,[2]; Table 4,3.4
COC(C)=O [Methyl acetate],logKOW,"[2]; Table 6, rounded values",+0.2
